Test results reported in patent publication US8404694B2, “Aurora kinase modulators and method of use” (Amgen Inc., priority 2008, dated 2013).
pEC50, pIC50: −log10 of the molar value.

What was measured:
AuroraB = target: T1, AuroraB (Homo sapiens, UniProt Q96GD4); experiment: AuroraB Homogeneous Time Resolved Fluorescent (HTRF) kinase assay; assay type: biochemical; conditions: ATP 23 μM, biotinylated Histone H3 peptide, read-out: AurB_IC50—IP (Avg)
T1 construct: 20 μL of AuroraB FL His; His
Procedure: AuroraB-Homogeneous Time Resolved Fluorescent (HTRF) Kinase Assay:
The AuroraB HTRF assay begins with AuroraB in the presence of ATP phosphorylating the biotinylated peptide Histone H3. The reaction incubates for about 90 min. the reaction is quenched by addition of detection reagents, which stop the reaction by diluting out the enzyme and chelating the metals due to the presence of EDTA. After addition, the assay is incubated for about 60 min to allow detection reagents to equilibrate.
The AuroraB HTRF assay comprises 1 μL of compound in 100% DMSO, 20 μL of ATP and biotinylated Histone H3, and 20 μL of AuroraB FL His for a final volume of 41 μL. The final concentration of Histone H3 is 0.1 μM. The final concentration of ATP is 23 μM (Km(app)=23 μM+/−2.6) and the final concentration of AuroraB is 400 pM. Buffer conditions are as follows: 50 mM HEPES pH 7.5, 5 mM NaCl, 0.5 mM MgCl, 0.5 mM MnCl, 2 mM DTT, 0.05% BSA.
(§1) The assay is quenched and stopped with 160 μL of detection reagent. Detection reagents are as follows: Buffer made of 50 mM Tris, pH 7.5, 100 mM NaCl, 3 mM EDTA, 0.05% BSA, 0.1% Tween20. Added to this buffer prior to reading is Steptavidin allophycocyanin (SA-APC) at a final conc in the assay of 0.001 mg/mL, and europilated anti-phosphoHistoneH3 Ab (Eu-anti-His H3) at a final conc of 0.064 nM.
(§2) The assay plate is read in either a Discovery or a RubyStar. The eu-anti-His H3 is excited at 320 nm and emits at 615 nm to excite the SA-APC which in turn emits at 655 nm. The ratio of SA-APC at 655 nm (excited due to close proximity to the Eu-anti-His H3 because of phosphorylation of the peptide) to free Eu-anti-His H3 at 615 nm will give substrate phosphorylation.
(§3) Many of the Examples described herein were tested, and found to be active compounds. Table I includes related biological data, which may be interpreted using the activity gauge below: […]

AuroraA-TPX2 = target: T2, AuroraA-TPX2 (Homo sapiens, UniProt O14965); experiment: AuroraA-TPX2 Homogeneous Time Resolved Fluorescent (HTRF) kinase assay; assay type: biochemical; conditions: ATP about 1 μM, biotinylated PLK peptide, read-out: AurA_IC50—IP (Avg)
T2 construct: 20 μL of AuroraA-TPX2 KD GST; GST
T2 sequence (O14965 133-383 limits assumed): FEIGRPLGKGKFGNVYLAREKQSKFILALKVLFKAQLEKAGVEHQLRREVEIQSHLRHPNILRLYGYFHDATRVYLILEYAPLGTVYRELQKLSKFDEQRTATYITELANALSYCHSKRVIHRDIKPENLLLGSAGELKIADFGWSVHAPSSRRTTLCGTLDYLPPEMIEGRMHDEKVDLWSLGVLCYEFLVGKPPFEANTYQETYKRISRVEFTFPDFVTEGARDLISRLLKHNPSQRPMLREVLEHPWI
T2 sequence (Q9ULW0 1-747 partner): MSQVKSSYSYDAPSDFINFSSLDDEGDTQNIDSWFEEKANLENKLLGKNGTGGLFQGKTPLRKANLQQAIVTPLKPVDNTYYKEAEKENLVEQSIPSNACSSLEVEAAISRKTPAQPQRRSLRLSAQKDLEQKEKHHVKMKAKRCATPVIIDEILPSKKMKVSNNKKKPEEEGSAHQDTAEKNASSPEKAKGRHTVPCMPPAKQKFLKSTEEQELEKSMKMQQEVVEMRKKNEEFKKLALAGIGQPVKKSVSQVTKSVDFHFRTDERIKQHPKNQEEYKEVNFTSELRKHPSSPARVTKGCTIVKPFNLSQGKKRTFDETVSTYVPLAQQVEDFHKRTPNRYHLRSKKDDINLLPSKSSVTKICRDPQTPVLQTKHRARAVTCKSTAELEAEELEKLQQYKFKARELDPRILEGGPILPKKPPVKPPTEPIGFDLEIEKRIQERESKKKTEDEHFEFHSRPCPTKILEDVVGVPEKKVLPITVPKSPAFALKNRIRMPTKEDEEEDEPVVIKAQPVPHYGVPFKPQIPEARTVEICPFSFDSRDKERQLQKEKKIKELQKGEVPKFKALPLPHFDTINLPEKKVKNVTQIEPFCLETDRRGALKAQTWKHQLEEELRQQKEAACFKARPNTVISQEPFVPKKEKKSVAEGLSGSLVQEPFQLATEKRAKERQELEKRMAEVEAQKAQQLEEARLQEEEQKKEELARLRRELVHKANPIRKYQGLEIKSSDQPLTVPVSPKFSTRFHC
Procedure: AuroraA-TPX2-Homogeneous Time Resolved Fluorescent (HTRF) Kinase Assay:
The Aurora-A HTRF assay begins with Aurora-A in the presence of ATP phosphorylating the biotinylated peptide PLK. The reaction incubates for about 120 min. Detection reagents are added to quench the reaction. These agents stop the reaction by diluting out the enzyme and chelating the metals due to the presence of EDTA. After addition, the assay is incubated overnight to allow the detection reagents to equilibrate.
The AuroraA HTRF assay comprises 1 μL of compound in 100% DMSO, 20 μL of ATP and biotinylated PLK, and 20 μL of AuroraA-TPX2 KD GST for a final volume of about 41 μL. The final concentration of PLK is about 1 μM. The final concentration of ATP is about 1 μM (Km(app)=1 μM+/−0.1) and the final concentration of AuroraA is about 5 nM. Buffer conditions are as follows: 60 mM HEPES pH 7.5, 25 mM NaCl, 10 mM MgCl, 2 mM DTT, 0.05% BSA.
as §1, with “0.0005” for “0.001”, “anti-phosphoPLK” for “anti-phosphoHistoneH3”, “(Eu-anti-PLK)” for “(Eu-anti-His H3)”, “0.02” for “0.064”
as §2, with “eu-anti-PLK” for “eu-anti-His H3”, “Eu-anti-PLK” for “Eu-anti-His H3”
as §3

HeLa cells = experiment: HeLa cell 24 hr ploidy assay; assay type: cell-based; conditions: Homo sapiens, 24 hrs treatment, DNA content (ploidy), read-out: 24 h_4N Ploidy EC50—IP (Avg)
Procedure: HeLa Cell 24 hr Ploidy Assay Protocol
The purpose of this assay is to evaluate the ability of selected individual compounds to induce Deoxyribonucleic acid (DNA) content (ploidy) in cells thought failed cell division. Cell cycle analysis is a rapid and efficient way to evaluate the status of DNA content (ploidy) of a given cell. HeLa cells (1×10^4 HeLa cells/well) in 100 ul of media (MEM+10% FBS) were plated in 96-well plates (Packard View) and cultured for 24 hrs at 37° C. maintained in a 5% CO2 atmosphere. The following day, cells were treated for 24 hrs with inhibitor compounds (10 pt. Dose ranging from 0.0024-1.25 umol/L). The compounds were serially diluted in DMSO (0.25% final concentration). The cells were fixed (3.7% Formaldehyde and 1% glutaraldehyde) and permeabilized (1×PBS with 1% BSA and 0.2% Triton X-100) in preparation for nuclear staining. The well plates were stained for 45 minutes at RT in the dark using Hoechest 33342 nuclear stain at 0.5 ug·ml (Stock of 10 mg/ml, Invitrogen, CA, Cat # H3570). The nuclear stain was removed by aspiration and the cells were washed with wash buffer. A Cellomics Array Scan Vti plate reader was used to acquire the DNA ploidy data of the cells using Cell Cycle bioapplication. Numbers for each of “valid cell count/well”, “% of 4N cells” and “% of >4Ncells” were calculated with the assistance of an Activity Base 5.1ca software and dose curves were generated using an XLFit software. With XLFit, final EC50 IP and EC50 transit values, as well as the Max and Min, were calculated for each curve. Many of the Examples described herein were tested, and fund to be active compounds. Table I includes related biological data in the 24 h cell-ploidy content assay, which may be interpreted using the activity gauge below: […]

T1 sequence (Q96GD4 whole entry): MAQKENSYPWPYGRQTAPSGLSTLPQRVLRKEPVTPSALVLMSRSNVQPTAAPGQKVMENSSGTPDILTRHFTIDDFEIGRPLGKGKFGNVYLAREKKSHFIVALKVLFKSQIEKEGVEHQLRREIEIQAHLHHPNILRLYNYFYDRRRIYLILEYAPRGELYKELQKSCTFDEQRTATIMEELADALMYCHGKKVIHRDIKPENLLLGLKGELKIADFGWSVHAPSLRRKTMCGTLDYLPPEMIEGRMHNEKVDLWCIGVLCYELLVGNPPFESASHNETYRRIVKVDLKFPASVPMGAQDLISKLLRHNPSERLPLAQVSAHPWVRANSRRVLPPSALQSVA

Row | SMILES | pIC50 (AuroraB) | pIC50 (AuroraA-TPX2) | pEC50 (HeLa cells)
1 | COCCOc1cc2nccc(Sc3ccc(Nc4nnc(-c5ccccc5)c5ccccc45)cc3)n2n1 [Example 27, N-(4-((2-((2-(methyloxy)ethyl)oxy)pyrazolo[1,5-a]pyrimidin-7-yl)thio)phenyl)-4-phenyl-1-phthalazinamine] | > 7.00 | 6.30 to 7.00 | > 7.00
2 | COCCOc1cc2nccc(Sc3ccc(Nc4nnc(-c5cc(C)cs5)c5ccccc45)cc3)n2n1 [Example 28, N-(4-((2-((2-(methyloxy)ethyl)oxy)pyrazolo[1,5-a]pyrimidin-7-yl)thio)phenyl)-4-(4-methyl-2-thienyl)-1-phthalazinamine] | > 7.00 | > 7.00 | > 7.00
3 | Clc1ccn2ncnc(Sc3ccc(Nc4nnc(-c5ccccc5)c5ccccc45)cc3)c12 [Example 29, N-(4-((5-chloropyrrolo[2,1-f][1,2,4]triazin-4-yl)thio)phenyl)-4-phenyl-1-phthalazinamine] | > 7.00 | < 5.60 | 6.30 to 7.00
